From patent US20010038824A1, “Intranasal cyclic peptide formulations” (priority 2000, published 2001)
Numbered stars: 1 amine (or outer) side, 2 acyl side, 3 side chain; on linkers, the order of the positions; unused ones are H or OH. Bridge positions count the residues as written; N and C are the ends. Square brackets hold non-standard residues; d marks the D form. Peptide text beside a SMILES is read from it. * marks the point of attachment. ξ: configuration not given here. pTerphenylCO(4''-OnC5H11) = CCCCCOc1ccc(-c2ccc(-c3ccc(C(=O)*)cc3)cc2)cc1; Orn(4R-OH,5R-OH) = O=C([C@H](C[C@@H](O)[C@@H](O)N[*:3])N[*:1])[*:2]; Hexadecanoyl(3R-amino) = CCCCCCCCCCCCC[C@H](CC(=O)[*:2])N[*:1]; hTyr(3S-OH,4S-OH) = N[C@H](C(=O)O)[C@H](O)[C@@H](O)c1ccc(O)cc1; X11 = CCCCCOc1ccc(-c2ccc(CC[C@H](CC(=O)[*:1])N[*:2])cc2)cc1; X8 = CCCCCCCCCOc1ccc2cc(CC[C@H](CC(=O)[*:1])N[*:2])ccc2c1; Orn(Nα,Nα-(2-aminoethyl)2) = NCCC[C@@H](C(=O)*)N(CCN)CCN; NαBis(2-aminoethyl)dOrn = NCCC[C@H](C(=O)*)N(CCN)CCN; ξTyr(3-NO2) = NC(Cc1ccc(O)c([N+](=O)[O-])c1)C(=O)O; Pro(3S-OH,4S-Me) = C[C@H]1CN[C@H](C(=O)O)[C@H]1O; X15 = CCCCCCCCCCCCCCC[C@H](CC(=O)[*:2])N(C)[*:1]; X16 = NCC(=O)Nc1cc(CC(N[*:1])C(=O)[*:2])ccc1O; X4 = CCCCCCCCCCCCC[C@H](CC(=O)[*:1])O[*:2]; X3 = NCCCN(CCCC(N[*:1])C(=O)[*:2])[*:3]; X2 = NC(=O)CC(O)C(N[*:1])C(=O)[*:2]; X12 = CN(C)CCCC(N[*:1])C(=O)[*:2]; Hyp = O=C(O)[C@@H]1C[C@@H](O)CN1; X1 = O=C(C1C(O)CCN1[*:1])[*:2]; ξOrn(3-OH) = NCCC(O)C(N)C(=O)O; ξY = NC(Cc1ccc(O)cc1)C(=O)O; X14 = NCCCNC(CCCN)C(=O)*; X13 = CCCCCCCCCCCCCCCN*; ξHyp = O=C(O)C1CC(O)CN1; ξOrn = NCCCC(N)C(=O)O; ξT = CC(O)C(N)C(=O)O; ξV = CC(C)C(N)C(=O)O; ξP = O=C(O)C1CCCN1; ξA = CC(N)C(=O)O; Sar = CNCC(=O)O

How the values were obtained:
Format in all cases: cell-based
[1] = tested on: Aspegillus fumigatus CF1003; test: In vitro antifungal activity, broth micro-dilution; conditions: YNB medium with 0.2% agarose, 1-2 days at 35° C.
Protocol: (§1) The in vitro antifungal activities of the representative Aerothricins of the present study were evaluated by determining the 50% inhibitory concentration (IC50), which was calculated as the lowest concentration of an antifungal to inhibit the growth of fungus to […] turbidity compared with the drug-free control growth spectrophotometrically.
(§2) The IC50 values were determined by the broth micro-dilution procedure based on NCCLS Approved Standard with the following minor modifications (National Committee for Clinical Laboratory Standards. (1997) Reference method for broth dilution antifungal susceptibility testing for yeasts. Approved standard. Document M27-A). Yeast Nitrogen Base (YNB; Difco Lab.) supplemented with 1% glucose and 0.25% K2HPO4 was used as testing medium for yeast, the same medium solidified with 0.2% low melting point agarose (BRL) was used for filamentous fungi. Inoculum size was 1-3×10^4 cells/ml, and incubation was performed for 1-2 days at 35° C.

[2] = tested on: Candida albicans CY1002; test: In vitro antifungal activity, broth micro-dilution; conditions: YNB medium, 1-2 days at 35° C.
Protocol: as §1, §2

[3] = tested on: Fusarium solani CF1088; test: In vitro antifungal activity, broth micro-dilution; conditions: YNB medium with 0.2% agarose, 1-2 days at 35° C.
Protocol: as §1, §2

[4] = tested on: mouse hepatocytes; test: In vitro hepatotoxicity test; conditions: mouse hepatocyte monolayers, 1 day exposure, morphological evaluation
Description: The mouse hepatocytes were isolated by a collagenase digestion and cultured in microtest plates. The hepatocyte monolayers were exposed to the test Aerothricins in the culture system for 1 day. After the culture period, the hepatocytes were observed under a microscope and evaluated morphologically. The degree of the morphological alteration (degeneration) of the hepatocytes by the test Aerothricins were compared with WF11243 and LY303366.

Compound	In vitro Antifungal activity, IC50, Aspegillus fumigatus CF1003 [1]	In vitro Antifungal activity, IC50, Candida albicans CY1002 [2]	In vitro Antifungal activity, IC50, Fusarium solani CF1088 [3]	Cytotoxicity to hepatocyte [4]
CCCCCCCCCCCCCCCNC(=O)[C@@H]1CC(=O)NC(C(C)O)C(=O)NC(C)C(=O)NC(Cc2ccc(O)c([N+](=O)[O-])c2)C(=O)NC(C(C)C)C(=O)N2CC(O)CC2C(=O)NC(C(C)O)C(=O)NC(C(C)O)C(=O)N2CCC(O)C2C(=O)NC(C(O)CC(N)=O)C(=O)NCC(=O)NC(C(C)O)C(=O)NC(CCCN)C(=O)N1 (stereo partly drawn) [Aerothricin 77] ([ξT][ξA][ξTyr(3-NO2)][ξV][ξHyp][ξT][ξT][X1][X2]G[ξT][ξOrn]D-X13; lactam N-13)	0.10 µg/mL	0.13 µg/mL	0.67 µg/mL	
CCCCCCCCCCCCC[C@@H]1CC(=O)NC(C(C)O)C(=O)NC(C)C(=O)NC(Cc2ccc(O)c(NC(=O)CN)c2)C(=O)NC(C(C)C)C(=O)N2CC(O)CC2C(=O)NC(C(C)O)C(=O)NC(C(C)O)C(=O)N2CCC(O)C2C(=O)NC(C(O)CC(N)=O)C(=O)NCC(=O)NC(C(C)O)C(=O)NC(CCCNC(=O)CN)C(=O)O1 (some centres unmarked) [Aerothricin 21] ([ξT][ξA][X16][ξV][ξHyp][ξT][ξT][X1][X2]G[ξT][ξOrn](Gly); linker N-C via X4)				>100 µg/mL
CCCCCCCCCOc1ccc2cc(CC[C@@H]3CC(=O)NC(C(C)O)C(=O)NC(C)C(=O)NC(Cc4ccc(O)cc4)C(=O)NC(C(C)C)C(=O)N4CC(O)CC4C(=O)NC(C(C)O)C(=O)NC(C(C)O)C(=O)N4CCC(O)C4C(=O)NC(C(O)CC(N)=O)C(=O)NCC(=O)NC(C(C)O)C(=O)NC(CCCN)C(=O)N3)ccc2c1 (some centres unmarked) [Aerothricin 53] ([ξT][ξA][ξY][ξV][ξHyp][ξT][ξT][X1][X2]G[ξT][ξOrn]; linker N-C via X8)				>100 µg/mL
CCCCCCCCCCCCCCC[C@@H]1CC(=O)NC(C(C)O)C(=O)NC(C)C(=O)NC(Cc2ccc(O)cc2)C(=O)NC(C(C)C)C(=O)N2CC(O)CC2C(=O)NC(C(C)O)C(=O)NC(C(C)O)C(=O)N2CCC(O)C2C(=O)NC(C(O)CC(N)=O)C(=O)NCC(=O)NC(C(C)O)C(=O)NC(CCCN)C(=O)N1C (some centres unmarked) [Aerothricin 95] (cyclo(G[ξT][ξOrn][X15][ξT][ξA][ξY][ξV][ξHyp][ξT][ξT][X1][X2]))	0.10 µg/mL	0.14 µg/mL	0.74 µg/mL	
CCCCCCCCCCCCCCCNC(=O)[C@@H]1CC(=O)NC(C(C)O)C(=O)NC(C)C(=O)NC(Cc2ccc(O)cc2)C(=O)NC(C(C)C)C(=O)N2CC(O)CC2C(=O)NC(C(C)O)C(=O)NC(C(C)O)C(=O)N2CCC(O)C2C(=O)NC(C(O)CC(N)=O)C(=O)NCC(=O)NC(C(C)O)C(=O)NC(CCCN(C)C)C(=O)N1 (stereo partly drawn) [Aerothricin 75] ([ξT][ξA][ξY][ξV][ξHyp][ξT][ξT][X1][X2]G[ξT][X12]D-X13; lactam N-13)	0.10 µg/mL	0.15 µg/mL	1.40 µg/mL	
CCCCCCCCCCCCC[C@@H]1CC(=O)NC(C(C)O)C(=O)NC(C)C(=O)NC(Cc2ccc(O)cc2)C(=O)NC(C(C)C)C(=O)N2CC(O)CC2C(=O)NC(C(C)O)C(=O)NC(C(C)O)C(=O)N2CCC(O)C2C(=O)NC(C(O)CC(N)=O)C(=O)NCC(=O)NC(C(C)O)C(=O)NC(CCCNC(=O)CNC)C(=O)O1 (some centres unmarked) [Aerothricin 14] ([ξT][ξA][ξY][ξV][ξHyp][ξT][ξT][X1][X2]G[ξT][ξOrn](Sar); linker N-C via X4)				>100 µg/mL
CCCCCOc1ccc(-c2ccc(CC[C@@H]3CC(=O)NC(C(C)O)C(=O)NC(C)C(=O)NC(Cc4ccc(O)c([N+](=O)[O-])c4)C(=O)NC(C(C)C)C(=O)N4CC(O)CC4C(=O)NC(C(C)O)C(=O)NC(C(C)O)C(=O)N4CCC(O)C4C(=O)NC(C(O)CC(N)=O)C(=O)NCC(=O)NC(C(C)O)C(=O)NC(CCCN)C(=O)N3)cc2)cc1 (some centres unmarked) [Aerothricin 54] ([ξT][ξA][ξTyr(3-NO2)][ξV][ξHyp][ξT][ξT][X1][X2]G[ξT][ξOrn]; linker N-C via X11)	0.17 µg/mL	0.15 µg/mL	0.74 µg/mL	
CCCCCCCCCCCCC[C@@H]1CC(=O)NC(C(C)O)C(=O)NC(C)C(=O)NC(Cc2ccc(O)c([N+](=O)[O-])c2)C(=O)NC(C(C)C)C(=O)N2CC(O)CC2C(=O)NC(C(C)O)C(=O)NC(C(C)O)C(=O)N2CCC(O)C2C(=O)NC(C(O)CC(N)=O)C(=O)NCC(=O)NC(C(C)O)C(=O)NC(CCCN)C(=O)N1 (stereo partly drawn) [Aerothricin 39] (cyclo(G[ξT][ξOrn][Hexadecanoyl(3R-amino)][ξT][ξA][ξTyr(3-NO2)][ξV][ξHyp][ξT][ξT][X1][X2]))	0.17 µg/mL	0.09 µg/mL	0.70 µg/mL	
CCCCCCCCCCOc1ccc(CC[C@@H]2CC(=O)NC(C(C)O)C(=O)NC(C)C(=O)NC(Cc3ccc(O)cc3)C(=O)NC(C(C)C)C(=O)N3CC(O)CC3C(=O)NC(C(C)O)C(=O)NC(C(C)O)C(=O)N3CCC(O)C3C(=O)NC(C(O)CC(N)=O)C(=O)NCC(=O)NC(C(C)O)C(=O)NC(CCCN)C(=O)N2)cc1 (single isomer, unassigned) [Aerothricin 47]				>100 µg/mL
CCCCCCCCCCCCC[C@@H]1CC(=O)NC(C(C)O)C(=O)NC(C)C(=O)NC(Cc2ccc(OC)cc2)C(=O)NC(C(C)C)C(=O)N2CC(O)CC2C(=O)NC(C(C)O)C(=O)NC(C(C)O)C(=O)N2CCC(O)C2C(=O)NC(C(O)CC(N)=O)C(=O)NCC(=O)NC(C(C)O)C(=O)NC(CCCN(C)C)C(=O)O1 (some centres unmarked) [Aerothricin 12] ([ξT][ξA][ξY](Me)[ξV][ξHyp][ξT][ξT][X1][X2]G[ξT][X12]; linker N-C via X4)	0.10 µg/mL	0.09 µg/mL	2.20 µg/mL	
CCCCCCCCCCCCC[C@@H]1CC(=O)NC(C(C)O)C(=O)NC(C)C(=O)NC(Cc2ccc(O)cc2)C(=O)NC(C(C)C)C(=O)N2CC(O)CC2C(=O)NC(C(C)O)C(=O)NC(C(C)O)C(=O)N2CCC(O)C2C(=O)NC(C(O)CC(N)=O)C(=O)NCC(=O)NC(C(C)O)C(=O)NC(CCCNC(=O)C2CCCN2)C(=O)O1 (some centres unmarked) [Aerothricin 15] ([ξT][ξA][ξY][ξV][ξHyp][ξT][ξT][X1][X2]G[ξT][ξOrn](ξP); linker N-C via X4)				>100 µg/mL
CCCCCCCCCCCCC[C@@H]1CC(=O)NC(C(C)O)C(=O)NC(C)C(=O)NC(Cc2ccc(O)cc2)C(=O)NC(C(C)C)C(=O)N2CC(O)CC2C(=O)NC(C(C)O)C(=O)NC(C(C)O)C(=O)N2CCC(O)C2C(=O)NC(C(O)CC(N)=O)C(=O)NCC(=O)NC(C(C)O)C(=O)NC(CCCN(CCCN)C(=O)C(CCCN)NCCCN)C(=O)O1 (some centres unmarked) [Aerothricin 136] ([ξT][ξA][ξY][ξV][ξHyp][ξT][ξT][X1][X2]G[ξT][X3](X14); linker N-C via X4)	0.28 µg/mL	0.20 µg/mL	0.04 µg/mL	
CCCCCOc1ccc(-c2ccc(-c3ccc(C(=O)N[C@H]4C[C@@H](O)[C@@H](O)NC(=O)[C@@H]5[C@@H](O)[C@@H](C)CN5C(=O)[C@H]([C@@H](C)O)NC(=O)[C@H]([C@H](O)[C@@H](O)c5ccc(O)cc5)NC(=O)[C@@H]5C[C@@H](O)CN5C(=O)[C@H]([C@@H](C)O)NC4=O)cc3)cc2)cc1 [LY303366, reference compound] ({pTerphenylCO(4''-OnC5H11)}-[Orn(4R-OH,5R-OH)]T[Hyp][hTyr(3S-OH,4S-OH)]T[Pro(3S-OH,4S-Me)]; lactam 1-C)				10 µg/mL
CCCCCCCCCCCCC[C@@H]1CC(=O)NC(C(C)O)C(=O)NC(C)C(=O)NC(Cc2ccc(O)cc2)C(=O)NC(C(C)C)C(=O)N2CC(O)CC2C(=O)NC(C(C)O)C(=O)NC(C(C)O)C(=O)N2CCC(O)C2C(=O)NC(C(O)CCN)C(=O)NCC(=O)NC(C(C)O)C(=O)NC(CCCN)C(=O)O1 (some centres unmarked) [Aerothricin 31] ([ξT][ξA][ξY][ξV][ξHyp][ξT][ξT][X1][ξOrn(3-OH)]G[ξT][ξOrn]; linker N-C via X4)	0.49 µg/mL	0.07 µg/mL	0.70 µg/mL	
CCCCCCCCCCCCC[C@@H]1CC(=O)NC(C(C)O)C(=O)NC(C)C(=O)NC(Cc2ccc(O)cc2)C(=O)NC(C(C)C)C(=O)N2CC(O)CC2C(=O)NC(C(C)O)C(=O)NC(C(C)O)C(=O)N2CCC(O)C2C(=O)NC(C(O)CC(N)=O)C(=O)NCC(=O)NC(C(C)O)C(=O)NC(CCCN(CCCN)C(=O)[C@@H](CCCN)N(CCN)CCN)C(=O)O1 (some centres unmarked) [Aerothricin 135] ([ξT][ξA][ξY][ξV][ξHyp][ξT][ξT][X1][X2]G[ξT][X3](NαBis(2-aminoethyl)dOrn); linker N-C via X4)				>100 µg/mL
CCCCCCCCCCCCC[C@@H]1CC(=O)NC(C(C)O)C(=O)NC(C)C(=O)NC(Cc2ccc(O)cc2)C(=O)NC(C(C)C)C(=O)N2CC(O)CC2C(=O)NC(C(C)O)C(=O)NC(C(C)O)C(=O)N2CCC(O)C2C(=O)NC(C(O)CC(N)=O)C(=O)NCC(=O)NC(C(C)O)C(=O)NC(CCCN(CCCN)C(=O)[C@H](CCCN)N(CCN)CCN)C(=O)O1 (some centres unmarked) [Aerothricin 134] ([ξT][ξA][ξY][ξV][ξHyp][ξT][ξT][X1][X2]G[ξT][X3](Orn(Nα,Nα-(2-aminoethyl)2)); linker N-C via X4)				>100 µg/mL
